{"source": "paper PMC9440028", "about": "“Neurotensin analogs by fluoroglycosylation at N^ω-carbamoylated arginines for PET imaging of NTS1-positive tumors” (Scientific Reports, 2022)", "key": {"hNTS1R": {"biological_target": "T1, hNTS1R (Homo sapiens, UniProt P30989)", "T1 construct": "at hNTS1R expressing intact human HT-29 colon carcinoma cells; endogenous in cells; host or cells: HT-29 human colon carcinoma cells (intact)", "T1 sequence (P30989 whole entry)": "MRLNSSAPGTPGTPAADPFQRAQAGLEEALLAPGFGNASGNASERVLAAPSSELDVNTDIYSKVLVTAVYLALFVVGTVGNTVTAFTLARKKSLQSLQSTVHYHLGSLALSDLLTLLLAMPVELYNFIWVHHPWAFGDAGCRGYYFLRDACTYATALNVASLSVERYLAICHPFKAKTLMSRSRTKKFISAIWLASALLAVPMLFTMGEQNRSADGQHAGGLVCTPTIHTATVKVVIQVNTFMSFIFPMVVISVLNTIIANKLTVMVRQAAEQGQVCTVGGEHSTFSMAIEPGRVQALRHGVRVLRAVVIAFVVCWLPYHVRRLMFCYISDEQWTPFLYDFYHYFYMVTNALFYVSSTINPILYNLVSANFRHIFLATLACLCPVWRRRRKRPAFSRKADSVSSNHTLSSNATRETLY", "assay": "Radioligand competition binding with [^3H]UR-MK300 at intact HT-29 cells", "details": "[^3H]UR-MK300 (Kd = […], c = 1 nM), 23 °C", "description": "Unspecific binding was subtracted from total binding to obtain specific binding. Data analysis was performed by plotting % specifically bound radioligand (100% = specifically bound radioligand in the absence of competitor) over log(concentration of competitor) followed by a four-parameter logistic fit (SigmaPlot 12.5, Systat Software). […] The Ki values from individual experiments were transformed to pKi values, followed by the calculation of mean pKi values ± SEM."}, "[1]": {"assay": "In vitro stability in human plasma/PBS (1:2 v/v) at 37 °C", "type": "in vitro ADME", "details": "human blood plasma/PBS (1:2 v/v), read-out: % intact peptide in human plasma after the given incubation time; for remaining at 10 min, 100 µM: pH 7.4, 10 min; for remaining at 25 min, 100 µM: pH 7.4, 25 min; for remaining at 1 h, 100 µM: pH 7.4, 1 h; for remaining at 2 h, 100 µM: pH 7.4, 2 h; for remaining at 6 h, 100 µM: pH 7.4, 6 h; for remaining at 24 h, 100 µM: pH 7.4, 24 h; for remaining at 48 h, 100 µM: pH 7.4, 48 h", "description": "The metabolic stabilities of 11–14, 16 and 18–21 (cf. Table 2) were investigated in human blood plasma/PBS (136.9 mM NaCl, 2.68 mM KCl, 5.62 mM Na2HPO4, 1.09 mM NaH2PO4 and 1.47 mM KH2PO4) pH 7.4 (1:2, v/v) according to a described procedure[13] with the following modifications: 5 mM stock solutions in EtOH/0.04% aq TFA (30:70 v/v) (11–13), MeCN/0.025% aq TFA (30:70 v/v) (14), MeCN/0.04% aq TFA (30:70 v/v) (16, 19 and 21) or EtOH/H2O (40:60 v/v) (18, 20) were used for the addition of the peptides to plasma/PBS (1:2 v/v). As the RP-HPLC purity of 1-Methyl-D-Trp (internal standard, IS) was < 95% (data not shown), the compound was purified by preparative HPLC to give a purity of > 99%. The concentration of the peptides in plasma/PBS (1:2 v/v) was 80 and 4 µM (recovery determination) or 100 µM (stability tests). The obtained recoveries and the recovery ratios (peptide/internal standard) are summarized in Supplementary Table S1. Data analysis was based on UV detection at 220 nm. Additionally, the stability of compound 21 was investigated in mouse plasma/PBS (1:2 v/v) using the same procedure as described above for human plasma. Mouse plasma was obtained by the collection of blood from anaesthetized mice via cardiac puncture using a syringe that was rinsed with sodium heparin (25,000 I.E., Ratiopharm, Ulm, Germany). The heparinized blood was transferred into a 2-mL reaction vessel, followed by centrifugation (1200 g, 4 °C, 10 min). The supernatants were pooled, centrifuged again (1200 g, 4 °C, 10 min), the plasma was aliquoted and stored at − 80 °C. The concentration of 21 in plasma/PBS (1:2 v/v) was 80 and 4 μM (recovery determination) or 100 μM (stability tests). The obtained recoveries and the recovery ratios (21/IS) are summarized in Supplementary Table S2. Data analysis was based on UV detection at 220 nm."}, "[2]": {"details": "read-out: pKi ± SEM (converted)"}}, "note": "Read-outs that look alike come from different tables or passages of the source.", "data": [{"smiles": "CC(C)C[C@H](NC(=O)[C@@H](NC(=O)[C@H](Cc1ccc(O)cc1)NC(=O)[C@@H]1CCCN1C(=O)[C@H](CCCNC(=N)N)NC(=O)[C@@H](N)CCCNC(=N)NC(=O)NCCCCc1cn([C@@H]2O[C@H](CF)[C@@H](O)[C@H](O)[C@H]2O)nn1)C(C)(C)C)C(=O)O", "note": "[Compound 11, H-{N^ω-[N-(4-{1-[6-deoxy-6-fluoro-β-D-glucopyranosyl]-1H-1,2,3-triazol-4-yl}butyl)aminocarbonyl]}Arg-Arg-Pro-Tyr-2-tert-butyl-Gly-Leu-OH tris(hydrotrifluoroacetate)]", "values": [{"measurement": "Ki", "setting": "hNTS1R; mean, read-out: Ki (converted)", "value": 4.6, "unit": "nM"}, {"measurement": "remaining at 10 min, 100 µM", "setting": "[1]", "value": "72 ± 1", "unit": "%"}, {"measurement": "remaining at 25 min, 100 µM", "setting": "[1]", "value": "24 ± 1", "unit": "%"}, {"measurement": "remaining at 1 h, 100 µM", "setting": "[1]", "value": "1.1 ± 0.1", "unit": "%"}, {"measurement": "remaining at 2 h, 100 µM", "setting": "[1]", "value": "< 1", "unit": "%"}]}, {"smiles": "CC(C)C[C@H](NC(=O)[C@@H](NC(=O)[C@H](Cc1ccc(O)cc1)NC(=O)[C@@H]1CCCN1C(=O)[C@H](CCCNC(=N)NC(=O)NCCCCc1cn([C@@H]2O[C@H](CF)[C@@H](O)[C@H](O)[C@H]2O)nn1)NC(=O)[C@@H](N)CCCNC(=N)N)C(C)(C)C)C(=O)O", "note": "[Compound 12, H-Arg-{N^ω-[N-(4-{1-[6-deoxy-6-fluoro-β-D-glucopyranosyl]-1H-1,2,3-triazol-4-yl}butyl)aminocarbonyl]}Arg-Pro-Tyr-2-tert-butyl-Gly-Leu-OH tris(hydrotrifluoroacetate)]", "values": [{"measurement": "Ki", "setting": "hNTS1R; mean, read-out: Ki (converted)", "value": 5.8, "unit": "nM"}, {"measurement": "Ki", "setting": "hNTS1R; [2]", "value": 5.5, "unit": "nM"}, {"measurement": "remaining at 10 min, 100 µM", "setting": "[1]", "value": "86 ± 1", "unit": "%"}, {"measurement": "remaining at 25 min, 100 µM", "setting": "[1]", "value": "28 ± 1", "unit": "%"}, {"measurement": "remaining at 1 h, 100 µM", "setting": "[1]", "value": "< 1", "unit": "%"}, {"measurement": "remaining at 2 h, 100 µM", "setting": "[1]", "value": "< 1", "unit": "%"}]}, {"smiles": "CN[C@@H](CCCNC(=N)NC(=O)NCCCCN)C(=O)N[C@@H](CCCNC(=N)N)C(=O)N1CCC[C@H]1C(=O)N[C@@H](Cc1ccc(O)cc1)C(=O)N[C@H](C(=O)N[C@@H](CC(C)C)C(=O)O)C(C)(C)C", "note": "[Compound 16, N^α-methyl-N^ω-[(4-aminobutyl)aminocarbonyl]Arg-Arg-Pro-Tyr-2-tert-butyl-Gly-Leu-OH tetrakis(hydrotrifluoroacetate)]", "values": [{"measurement": "Ki", "setting": "hNTS1R; mean, read-out: Ki (converted)", "value": 2.8, "unit": "nM"}, {"measurement": "remaining at 1 h, 100 µM", "setting": "[1]", "value": "> 99", "unit": "%"}, {"measurement": "remaining at 6 h, 100 µM", "setting": "[1]", "value": "> 99", "unit": "%"}, {"measurement": "remaining at 24 h, 100 µM", "setting": "[1]", "value": "> 99", "unit": "%"}, {"measurement": "remaining at 48 h, 100 µM", "setting": "[1]", "value": "> 99", "unit": "%"}]}, {"smiles": "C#CCCCCNC(=O)NC(=N)NCCC[C@H](NC(=O)[C@H](CCCNC(=N)N)NC)C(=O)N1CCC[C@H]1C(=O)N[C@@H](Cc1ccc(O)cc1)C(=O)N[C@H](C(=O)N[C@@H](CC(C)C)C(=O)O)C(C)(C)C", "note": "[Compound 9, N^α-(N^α-methylarginyl)-N^ω-(5-hexynylaminocarbonyl)Arg-Pro-Tyr-2-tert-butyl-Gly-Leu-OH tris(hydrotrifluoroacetate)]", "values": [{"measurement": "Ki", "setting": "hNTS1R; mean, read-out: Ki (converted)", "value": 7.7, "unit": "nM"}, {"measurement": "Ki", "setting": "hNTS1R; [2]", "value": 7.41, "unit": "nM"}]}, {"smiles": "C#CCCC(=O)NCCCCNC(=O)NC(=N)NCCC[C@H](NC)C(=O)N[C@@H](CCCNC(=N)N)C(=O)N1CCC[C@H]1C(=O)N[C@@H](Cc1ccc(O)cc1)C(=O)N[C@H](C(=O)N[C@@H](CC(C)C)C(=O)O)C(C)(C)C", "note": "[Compound 19, N^α-methyl-{N^ω-[N-(4-pent-4-ynoylaminobutyl)aminocarbonyl]}Arg-Arg-Pro-Tyr-2-tert-butyl-Gly-Leu-OH tris(hydrotrifluoroacetate)]", "values": [{"measurement": "Ki", "setting": "hNTS1R; mean, read-out: Ki (converted)", "value": 7.7, "unit": "nM"}, {"measurement": "remaining at 1 h, 100 µM", "setting": "[1]", "value": "> 99", "unit": "%"}, {"measurement": "remaining at 6 h, 100 µM", "setting": "[1]", "value": "> 99", "unit": "%"}, {"measurement": "remaining at 24 h, 100 µM", "setting": "[1]", "value": "> 99", "unit": "%"}, {"measurement": "remaining at 48 h, 100 µM", "setting": "[1]", "value": "99 ± 1", "unit": "%"}]}, {"smiles": "C#CCCCCNC(=O)NC(=N)NCCC[C@H](N)C(=O)N[C@@H](CCCNC(=N)N)C(=O)N1CCC[C@H]1C(=O)N[C@@H](Cc1ccc(O)cc1)C(=O)N[C@H](C(=O)N[C@@H](CC(C)C)C(=O)O)C(C)(C)C", "note": "[Compound 7, H-(N^ω-5-hexynylaminocarbonyl)Arg-Arg-Pro-Tyr-2-tert-butyl-Gly-Leu-OH tris(hydrotrifluoroacetate)]", "values": [{"measurement": "Ki", "setting": "hNTS1R; mean, read-out: Ki (converted)", "value": 4.6, "unit": "nM"}, {"measurement": "Ki", "setting": "hNTS1R; [2]", "value": 4.37, "unit": "nM"}]}, {"smiles": "C#CCCCCNC(=O)NC(=N)NCCC[C@H](NC(=O)[C@@H](N)CCCNC(=N)N)C(=O)N1CCC[C@H]1C(=O)N[C@@H](Cc1ccc(O)cc1)C(=O)N[C@H](C(=O)N[C@@H](CC(C)C)C(=O)O)C(C)(C)C", "note": "[Compound 8, H-Arg-(N^ω-5-hexynylaminocarbonyl)Arg-Pro-Tyr-2-tert-butyl-Gly-Leu-OH tris(hydrotrifluoroacetate)]", "values": [{"measurement": "pKi ± SEM", "setting": "hNTS1R", "value": "8.03 ± 0.03"}, {"measurement": "Ki", "setting": "hNTS1R; mean, read-out: Ki (converted)", "value": 9.4, "unit": "nM"}]}]}
